We go through one compound from ChEMBL document CHEMBL3870316, “Design, synthesis and structure-activity relationships of novel 4-phenoxyquinoline derivatives containing 1,2,4-triazolone moiety as c-Met kinase inhibitors” (Eur J Med Chem, 2016).

The structures appear in SMILES notation. pIC50: −log10 of the molar value.

In test [1] the target is Macrophage-stimulating protein receptor (Homo sapiens, UniProt Q04912). Description: Inhibition of Ron (unknown origin) after 30 mins by HTRF assay. For orientation: TR-FRET usually uses a lanthanide donor and a delayed reading to cut background.
Test [2] deals with Platelet-derived growth factor receptor alpha (Homo sapiens, UniProt P16234). Description: Inhibition of PDGFRalpha (unknown origin) after 30 mins by HTRF assay.
Platelet-derived growth factor receptor alpha, sequence (P16234 whole entry): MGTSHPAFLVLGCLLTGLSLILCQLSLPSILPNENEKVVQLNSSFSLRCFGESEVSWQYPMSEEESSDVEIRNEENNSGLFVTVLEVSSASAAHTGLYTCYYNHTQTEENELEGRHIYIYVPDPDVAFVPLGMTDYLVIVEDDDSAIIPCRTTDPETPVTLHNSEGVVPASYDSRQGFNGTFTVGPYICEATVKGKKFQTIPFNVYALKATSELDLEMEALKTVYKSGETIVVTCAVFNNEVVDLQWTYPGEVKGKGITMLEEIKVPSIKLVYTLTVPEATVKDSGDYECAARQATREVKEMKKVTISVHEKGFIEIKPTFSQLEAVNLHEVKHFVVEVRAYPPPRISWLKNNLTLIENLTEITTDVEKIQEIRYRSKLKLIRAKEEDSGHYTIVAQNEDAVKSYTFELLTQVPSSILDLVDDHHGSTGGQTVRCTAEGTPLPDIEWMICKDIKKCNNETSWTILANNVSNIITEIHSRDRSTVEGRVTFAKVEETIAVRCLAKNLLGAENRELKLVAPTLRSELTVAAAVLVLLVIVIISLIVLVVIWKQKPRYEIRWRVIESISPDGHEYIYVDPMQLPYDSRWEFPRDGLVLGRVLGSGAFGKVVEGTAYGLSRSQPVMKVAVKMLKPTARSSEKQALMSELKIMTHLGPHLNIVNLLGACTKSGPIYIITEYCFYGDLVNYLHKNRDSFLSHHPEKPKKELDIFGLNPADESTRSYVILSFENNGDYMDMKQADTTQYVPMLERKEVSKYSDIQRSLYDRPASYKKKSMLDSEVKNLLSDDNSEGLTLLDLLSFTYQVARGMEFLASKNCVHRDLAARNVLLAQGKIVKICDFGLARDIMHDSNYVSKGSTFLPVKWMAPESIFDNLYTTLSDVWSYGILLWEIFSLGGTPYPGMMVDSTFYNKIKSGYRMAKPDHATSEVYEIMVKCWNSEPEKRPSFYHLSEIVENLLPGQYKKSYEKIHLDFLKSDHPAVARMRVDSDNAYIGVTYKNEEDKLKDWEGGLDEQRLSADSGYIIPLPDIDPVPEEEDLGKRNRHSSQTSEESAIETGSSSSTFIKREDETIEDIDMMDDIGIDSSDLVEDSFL
Test [3] deals with Epidermal growth factor receptor (Homo sapiens, UniProt P00533). Nature of the test: Inhibition of EGFR (unknown origin) after 30 mins by HTRF assay.
Epidermal growth factor receptor, sequence (P00533 whole entry): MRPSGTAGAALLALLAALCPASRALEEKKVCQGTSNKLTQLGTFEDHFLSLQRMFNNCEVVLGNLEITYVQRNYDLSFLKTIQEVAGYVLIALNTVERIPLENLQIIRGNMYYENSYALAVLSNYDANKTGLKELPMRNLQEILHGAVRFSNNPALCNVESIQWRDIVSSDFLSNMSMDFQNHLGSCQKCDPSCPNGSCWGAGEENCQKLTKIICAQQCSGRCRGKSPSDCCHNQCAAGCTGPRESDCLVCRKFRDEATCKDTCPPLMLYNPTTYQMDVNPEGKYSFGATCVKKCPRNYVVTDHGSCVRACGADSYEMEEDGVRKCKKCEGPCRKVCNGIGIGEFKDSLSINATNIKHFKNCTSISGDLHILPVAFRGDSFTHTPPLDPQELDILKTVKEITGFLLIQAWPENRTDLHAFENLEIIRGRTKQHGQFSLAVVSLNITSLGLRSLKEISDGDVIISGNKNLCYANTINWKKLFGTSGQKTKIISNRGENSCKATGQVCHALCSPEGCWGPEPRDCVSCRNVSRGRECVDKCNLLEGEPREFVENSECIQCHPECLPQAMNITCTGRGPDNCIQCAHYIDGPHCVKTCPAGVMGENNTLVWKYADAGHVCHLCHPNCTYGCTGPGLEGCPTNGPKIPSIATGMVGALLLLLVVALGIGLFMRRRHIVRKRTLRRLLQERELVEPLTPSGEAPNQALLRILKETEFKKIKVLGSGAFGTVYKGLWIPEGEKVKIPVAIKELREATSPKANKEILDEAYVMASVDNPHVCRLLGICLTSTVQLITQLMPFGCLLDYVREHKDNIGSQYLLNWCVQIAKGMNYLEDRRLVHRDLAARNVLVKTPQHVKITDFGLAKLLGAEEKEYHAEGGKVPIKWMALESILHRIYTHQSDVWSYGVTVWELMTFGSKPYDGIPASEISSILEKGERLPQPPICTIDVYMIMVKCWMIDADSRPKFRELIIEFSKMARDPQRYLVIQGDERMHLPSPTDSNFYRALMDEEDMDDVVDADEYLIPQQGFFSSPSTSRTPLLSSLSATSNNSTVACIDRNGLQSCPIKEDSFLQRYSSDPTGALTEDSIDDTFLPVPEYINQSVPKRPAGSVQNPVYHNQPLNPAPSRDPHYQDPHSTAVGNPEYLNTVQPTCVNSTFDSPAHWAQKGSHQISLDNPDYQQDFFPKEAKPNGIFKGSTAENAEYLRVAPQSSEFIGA
The subject of another test is MKN-45. Description: Potency index, ratio of foretinib IC50 to compound IC50 for human MKN45 cells. The class given is functional.
The nature of test [4]: Potency index, ratio of foretinib IC50 to compound IC50 for human H460 cells. The class given is functional.
Test [5] can be described thus: Cytotoxicity against c-Met over-expressed human MKN45 cells assessed as cell growth inhibition after 72 hrs by MTT assay. Particulars: MKN-45, 72 h.
For test [6], the target named is Mast/stem cell growth factor receptor Kit (Homo sapiens, UniProt P10721). Nature of the test: Inhibition of c-Kit (unknown origin) after 30 mins by HTRF assay.
The target of test [7] is T1, Receptor-type tyrosine-protein kinase FLT3 (Homo sapiens, UniProt P36888).
T1 sequence (P36888 whole entry): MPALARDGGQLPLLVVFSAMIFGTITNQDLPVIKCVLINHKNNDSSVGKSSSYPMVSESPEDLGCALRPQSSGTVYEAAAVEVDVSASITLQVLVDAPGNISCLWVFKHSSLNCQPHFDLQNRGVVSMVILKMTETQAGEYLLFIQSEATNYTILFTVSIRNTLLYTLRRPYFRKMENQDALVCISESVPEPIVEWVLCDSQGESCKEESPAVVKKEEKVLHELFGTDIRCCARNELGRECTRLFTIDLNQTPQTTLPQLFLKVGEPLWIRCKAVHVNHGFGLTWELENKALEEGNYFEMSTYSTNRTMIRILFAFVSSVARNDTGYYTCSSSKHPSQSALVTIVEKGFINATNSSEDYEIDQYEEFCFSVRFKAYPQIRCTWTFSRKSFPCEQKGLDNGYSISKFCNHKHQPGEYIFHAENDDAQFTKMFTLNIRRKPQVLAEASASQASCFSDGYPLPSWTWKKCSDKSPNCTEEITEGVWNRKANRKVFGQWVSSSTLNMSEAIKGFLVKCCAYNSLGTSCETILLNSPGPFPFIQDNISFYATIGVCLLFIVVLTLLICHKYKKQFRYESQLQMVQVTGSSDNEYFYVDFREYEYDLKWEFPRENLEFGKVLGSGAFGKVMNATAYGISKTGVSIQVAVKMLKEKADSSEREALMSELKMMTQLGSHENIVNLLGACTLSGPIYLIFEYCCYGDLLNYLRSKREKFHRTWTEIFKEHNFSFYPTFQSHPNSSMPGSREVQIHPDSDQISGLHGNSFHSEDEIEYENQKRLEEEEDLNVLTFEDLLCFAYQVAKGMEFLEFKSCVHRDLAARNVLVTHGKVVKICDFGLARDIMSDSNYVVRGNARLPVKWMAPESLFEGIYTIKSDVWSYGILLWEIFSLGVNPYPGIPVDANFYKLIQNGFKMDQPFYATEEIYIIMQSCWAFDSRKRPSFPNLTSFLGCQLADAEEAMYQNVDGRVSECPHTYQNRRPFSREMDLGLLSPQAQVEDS
Description: Inhibition of FLT3 (unknown origin) after 30 mins by HTRF assay.

Test [8] deals with Hepatocyte growth factor receptor (Homo sapiens, UniProt P08581). Nature of the test: Inhibition of c-MET (unknown origin) using poly(Glu, Tyr)4:1 as substrate after 30 mins by HTRF assay.
Hepatocyte growth factor receptor, sequence (P08581 whole entry): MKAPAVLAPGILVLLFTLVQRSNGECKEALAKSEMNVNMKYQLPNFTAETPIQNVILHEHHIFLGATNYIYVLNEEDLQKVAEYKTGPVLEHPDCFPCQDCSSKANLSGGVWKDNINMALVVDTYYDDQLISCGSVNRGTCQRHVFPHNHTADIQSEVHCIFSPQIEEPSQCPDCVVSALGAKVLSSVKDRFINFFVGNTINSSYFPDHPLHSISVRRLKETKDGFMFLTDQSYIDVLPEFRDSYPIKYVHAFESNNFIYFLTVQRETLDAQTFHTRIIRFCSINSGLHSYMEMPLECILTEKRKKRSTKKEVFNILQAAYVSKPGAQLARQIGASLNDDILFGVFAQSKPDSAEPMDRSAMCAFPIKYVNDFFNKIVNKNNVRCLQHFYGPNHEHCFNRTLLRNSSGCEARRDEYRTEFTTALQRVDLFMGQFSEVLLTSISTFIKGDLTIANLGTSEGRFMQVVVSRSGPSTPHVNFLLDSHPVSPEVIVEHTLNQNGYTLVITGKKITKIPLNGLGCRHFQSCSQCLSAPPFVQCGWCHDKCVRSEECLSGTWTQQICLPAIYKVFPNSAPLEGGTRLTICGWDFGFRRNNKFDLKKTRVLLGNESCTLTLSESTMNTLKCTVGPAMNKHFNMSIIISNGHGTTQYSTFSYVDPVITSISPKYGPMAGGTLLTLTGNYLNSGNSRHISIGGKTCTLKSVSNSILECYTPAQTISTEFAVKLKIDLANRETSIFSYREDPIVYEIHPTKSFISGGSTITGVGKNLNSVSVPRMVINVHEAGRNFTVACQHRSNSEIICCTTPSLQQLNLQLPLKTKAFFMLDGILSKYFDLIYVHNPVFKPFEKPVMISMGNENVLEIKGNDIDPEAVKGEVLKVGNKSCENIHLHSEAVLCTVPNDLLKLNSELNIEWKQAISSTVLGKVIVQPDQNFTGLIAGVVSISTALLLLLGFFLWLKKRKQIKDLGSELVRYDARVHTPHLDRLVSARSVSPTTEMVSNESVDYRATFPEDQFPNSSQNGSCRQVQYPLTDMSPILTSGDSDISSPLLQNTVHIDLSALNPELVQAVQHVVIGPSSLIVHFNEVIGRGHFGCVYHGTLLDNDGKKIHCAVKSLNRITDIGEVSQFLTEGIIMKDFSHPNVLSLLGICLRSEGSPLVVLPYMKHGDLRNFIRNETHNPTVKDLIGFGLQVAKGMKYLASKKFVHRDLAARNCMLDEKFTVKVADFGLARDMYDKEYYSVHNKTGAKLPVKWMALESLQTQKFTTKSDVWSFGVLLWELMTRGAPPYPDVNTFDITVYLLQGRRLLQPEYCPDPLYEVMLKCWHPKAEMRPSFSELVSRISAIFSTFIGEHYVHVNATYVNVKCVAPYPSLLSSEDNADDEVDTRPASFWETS
Test [9] in a line: Cytotoxicity against c-Met over-expressed human A549 cells assessed as cell growth inhibition after 72 hrs by MTT assay. Particulars: A549, 72 h. (In general: Tetrazolium assays rely on reduction of a dye to a coloured formazan, in cell work by metabolically active cells.)
Another test is filed under the species Homo sapiens. Nature of the test: Selectivity ratio of IC50 for VEGFR2 (unknown origin) to IC50 for c-MET (unknown origin).
Test [10] concerns the target Vascular endothelial growth factor receptor 2 (Homo sapiens, UniProt P35968). Nature of the test: Inhibition of VEGFR2 (unknown origin) after 30 mins by HTRF assay.
Test [11] in a line: Cytotoxicity against c-Met over-expressed human H460 cells assessed as cell growth inhibition after 72 hrs by MTT assay. Conditions: NCI-H460, 72 h.
A further test deals with A549. Description: Potency index, ratio of foretinib IC50 to compound IC50 for human A549 cells. The class given is functional.
The next test relates to HT-29. Nature of the test: Potency index, ratio of foretinib IC50 to compound IC50 for human HT-29 cells. The class given is functional.
The nature of test [12]: Cytotoxicity against c-Met over-expressed human HT-29 cells assessed as cell growth inhibition after 72 hrs by MTT assay. Conditions: HT-29, 72 h.

Vascular endothelial growth factor receptor 2, sequence (P35968 whole entry): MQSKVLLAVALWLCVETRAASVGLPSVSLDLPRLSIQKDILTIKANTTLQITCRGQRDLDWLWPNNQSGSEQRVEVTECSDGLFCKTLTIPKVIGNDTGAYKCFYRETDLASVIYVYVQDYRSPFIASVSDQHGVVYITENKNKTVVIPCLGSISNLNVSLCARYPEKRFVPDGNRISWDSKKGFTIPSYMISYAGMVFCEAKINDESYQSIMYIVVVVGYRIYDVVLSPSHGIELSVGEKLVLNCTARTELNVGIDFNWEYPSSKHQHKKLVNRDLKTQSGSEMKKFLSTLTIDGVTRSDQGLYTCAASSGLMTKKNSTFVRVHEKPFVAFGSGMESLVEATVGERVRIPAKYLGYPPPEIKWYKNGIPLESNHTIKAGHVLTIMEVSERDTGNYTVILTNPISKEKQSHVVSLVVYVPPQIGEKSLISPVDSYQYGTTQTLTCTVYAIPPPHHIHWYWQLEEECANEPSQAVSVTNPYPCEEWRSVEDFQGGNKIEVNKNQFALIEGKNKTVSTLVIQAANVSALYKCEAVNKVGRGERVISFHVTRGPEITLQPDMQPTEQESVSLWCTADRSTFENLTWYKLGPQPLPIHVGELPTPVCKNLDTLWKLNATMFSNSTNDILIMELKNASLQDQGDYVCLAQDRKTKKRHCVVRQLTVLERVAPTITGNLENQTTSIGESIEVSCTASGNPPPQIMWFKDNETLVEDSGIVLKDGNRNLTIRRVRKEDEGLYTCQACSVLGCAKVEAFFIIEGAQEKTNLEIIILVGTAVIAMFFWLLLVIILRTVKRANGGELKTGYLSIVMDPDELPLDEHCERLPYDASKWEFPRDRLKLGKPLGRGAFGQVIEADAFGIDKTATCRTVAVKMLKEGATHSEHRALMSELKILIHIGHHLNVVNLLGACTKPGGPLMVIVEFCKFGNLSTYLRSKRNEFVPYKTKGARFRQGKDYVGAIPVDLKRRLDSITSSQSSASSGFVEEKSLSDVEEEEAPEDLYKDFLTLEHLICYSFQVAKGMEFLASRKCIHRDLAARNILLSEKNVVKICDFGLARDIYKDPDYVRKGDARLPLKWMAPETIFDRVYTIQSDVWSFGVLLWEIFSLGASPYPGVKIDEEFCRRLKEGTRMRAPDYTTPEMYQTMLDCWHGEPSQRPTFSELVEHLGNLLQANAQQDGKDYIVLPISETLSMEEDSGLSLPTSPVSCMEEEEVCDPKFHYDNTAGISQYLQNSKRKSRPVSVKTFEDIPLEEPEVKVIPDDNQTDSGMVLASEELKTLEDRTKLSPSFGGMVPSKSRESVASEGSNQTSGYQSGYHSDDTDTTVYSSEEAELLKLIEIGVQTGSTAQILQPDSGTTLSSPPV

Regarding `COc1cc2c(Oc3ccc(NC(=O)c4nn(-c5ccccc5F)c(=O)n4C)cc3F)ccnc2cc1OCCCN1CCN(C)CC1`, the pIC50 – broadly, −log10 of the IC50, conventionally taken in molar units – in test [1] is 6.85; in [2], 7.02; in test [3], below 5.00; in [5], 7.52; in [6], 8.47; in test [7] it was 8.09. For the same compound, the pIC50 in test [8] is 8.80; in [9], 6.96; in test [10], 6.32; in [11] it was 6.85; in test [12], 7.10. In addition, the “Ratio IC50” value in the test with MKN-45 is 1.1 - 2.3; in test [4] it was 1.1 - 2.3; in the test listed under Homo sapiens, 306; in the test on A549, 1.1 - 2.3; with HT-29, 1.1 - 2.3.
